Source: patent publication USRE46856E1, “Substituted 2,3-dihydroimidazo[1,2-c]quinazoline derivatives useful for treating hyper-proliferative disorders and diseases associated with angiogenesis” (Bayer Intellectual Property GmbH, priority 2006, dated 2018)

The molecules below were run on IGF-1 induced AKT phosphorylation in A549 cells (assay: IGF-1 induced AKT phosphorylation assay (A549 cell assay)). Details: Homo sapiens; A549 cells, 25 ng/ml IGF-1, phospho-AKT(Ser 473); read-out: average IC50 in the A549 cell assay.
Format: cell-based
Source text: [Determination of IC50 Values of Compounds in Cell Based Assays of PI3K Activity] 96-well collagen treated clear bottom/black sided Costar plates were purchased from CORNING LIFE SCIENCES (Corning, N.Y.; at.#3904). Gibco RPMI medium (Cat.#11875), Biosource anti-phospho-AKT([…]) antibody (Cat.#44-621G) and recombinant IGF-1 (Cat.#PHG0074) were purchased from INVITROGEN (Carlsbad, Calif.). The secondary donkey anti-rabbit IgG horse radish peroxidase conjugate (Cat. #N[…]) and ECL chemiluminesence reagent (Cat.#RPN2209) were purchased from […] (Buckinghamshire, UK). Cell culture tested bovine serum albumin solution (35% in DPBS; Cat.#A7979) and all other chemicals were purchased from SIGMA (St. Louis, Mo.). The Wallac Victor2 1420 Multilabel HTS Counter was purchased from […] (Wellesley, Mass.) […] All wells (except no IGF-1 controls) were then treated with 25 ng/ml IGF-1 for 10 minutes at 37° C. in a 5% CO2 incubator. Following removal of the supernatants and washing with the wells with TBS (50 mM Tris pH 8.0 containing 138 mM NaCL and 27 mM KCl), 200 µL of 3.7% formaldehyde in TBS was added to each well, and the plate was incubated at 4° C. for 10 minutes. Supernatants were once again removed and replaced with 50 μL Methanol (-20° C.) and the plate incubated at 4° C. for 5 minutes. 200 μL of 0.1% BSA in TBS was then added to each well and the plate incubated at room temperature for 1⁄2 hour. Supernatants were removed and 50 μL of a solution comprising the primary anti-phospho-AKT([…]) antibody diluted 1:250 in TBS containing 0.1% BSA was added to each well (except control/background wells). The plate was then incubated for 11⁄2 hour at room temperature. Supernatants were removed, each well was washed 3 times with 200 μL TBS, and 100 μL of a solution containing the secondary donkey anti-rabbit IgG antibody HRP-conjugate diluted 1:100 in TBS-T (TBS containing 0.1% triton). Plates were then incubated for 1 hour at room temperature. After removing the secondary antibody, each well was washed 6 times with cold TBS-T, 100 μL of ECL was added to each well, and the plate was placed on an orbital shaker for 1 minute. The plates were then read on a Wallac Victor2 1420 Multilabel HTS Counter using the luminometry window (maximum light detection is measured at […]). IC50 values were determined from the inhibition curve.
`COc1c(OCCCN2CCOCC2)ccc2c1N=C(NC(=O)c1coc(N)n1)N1CCN=C21` [Example 79, 2-amino-N-[7-methoxy-8-(3-morpholin-4-ylpropoxy)-2,3-dihydroimidazo[1,2-c]quinazolin-5-yl]-1,3-oxazole-4-carboxamide] showed an IC50 of over 1000 nM. `CNC(=O)Nc1ccc(C(=O)NC2=Nc3c(ccc(OCCCN4CCOCC4)c3OC)C3=NCCN23)cn1` [Example 66, N-[7-methoxy-8-(3-morpholin-4-ylpropoxy)-2,3-dihydroimidazo[1,2-c]quinazolin-5-yl]-6-{[(methylamino)carbonyl]amino}nicotinamide] showed an IC50 of under 100 nM. `CNCCCOc1ccc2c(c1OC)N=C(NC(=O)c1cccnc1)N1CCN=C21` [Example 58, N-{7-methoxy-8-[3-(methylamino)propoxy]-2,3-dihydroimidazo[1,2-c]quinazolin-5-yl}nicotinamide] showed an IC50 of 100 to 1000 nM. Molecule `CCN(CC)CCOc1ccc2c(c1OC)N=C(NC(=O)c1cccnc1)N1CCN=C21` [Example 87, N-{8-[2-(diethylamino)ethoxy]-7-methoxy-2,3-dihydroimidazo[1,2-c]quinazolin-5-yl}nicotinamide] has an IC50 of 100 to 1000 nM. In the case of `COc1c(OCCCN2CCOCC2)ccc2c1N=C(NC(=O)c1cccnc1)N1CCN=C21` [Example 103, N-[7-methoxy-8-(3-morpholin-4-ylpropoxy)-2,3-dihydroimidazo[1,2-c]quinazolin-5-yl]nicotinamide], the IC50 is reported as under 100 nM. In the case of `CCNC(=O)Nc1ccc(C(=O)NC2=Nc3c(ccc(OCCCN4CCOCC4)c3OC)C3=NCCN23)cn1` [Example 77, 6-{[(ethylamino)carbonyl]amino}-N-[7-methoxy-8-(3-morpholin-4-ylpropoxy)-2,3-dihydroimidazo[1,2-c]quinazolin-5-yl]nicotinamide], the IC50 is reported as under 100 nM. In the case of `COc1c(OCCCN(C)C)ccc2c1N=C(NC(=O)c1ccc(N)nc1)N1CCN=C21` [Example 46, 6-amino-N-{8-[3-(dimethylamino)propoxy]-7-methoxy-2,3-dihydroimidazo[1,2-c]quinazolin-5-yl}nicotinamide], the IC50 is reported as under 100 nM. `COc1c(OCCN2CCOCC2)ccc2c1N=C(NC(=O)c1cccnc1)N1CCN=C21` [Example 68, N-[7-methoxy-8-(2-morpholin-4-ylethoxy)-2,3-dihydroimidazo[1,2-c]quinazolin-5-yl]nicotinamide] was tested, and the IC50 was under 100 nM. Molecule `COc1c(OCCCN2CCOCC2)ccc2c1N=C(NC(=O)c1ccc(N(C)C)nc1)N1CCN=C21` [Example 73, 6-(dimethylamino)-N-[7-methoxy-8-(3-morpholin-4-ylpropoxy)-2,3-dihydroimidazo[1,2-c]quinazolin-5-yl]nicotinamide] has an IC50 of 100 to 1000 nM. With `COc1c(OCCCN2CCOCC2)ccc2c1N=C(NC(=O)c1cnc(NCCO)nc1)N1CCN=C21` [Example 40, 2-[(2-hydroxyethyl)amino]-N-[7-methoxy-8-(3-morpholin-4-ylpropoxy)-2,3-dihydroimidazo[1,2-c]quinazolin-5-yl]pyrimidine-5-carboxamide] the IC50 was 100 to 1000 nM. `COc1c(OCCN(C)C)ccc2c1N=C(NC(=O)c1sc(C)nc1C)N1CCN=C21` [Example 69, N-{8-[2-(dimethylamino)ethoxy]-7-methoxy-2,3-dihydroimidazo[1,2-c]quinazolin-5-yl}-2,4-dimethyl-1,3-thiazole-5-carboxamide] showed an IC50 of under 100 nM. In the case of `COc1ccc(C(=O)NC2=Nc3c(ccc(OCCCN4CCOCC4)c3OC)C3=NCCN23)cn1` [Example 99, 6-methoxy-N-[7-methoxy-8-(3-morpholin-4-ylpropoxy)-2,3-dihydroimidazo[1,2-c]quinazolin-5-yl]nicotinamide], the IC50 is reported as under 100 nM. Work on `COc1c(OCCCN2CCCCC2)ccc2c1N=C(NC(=O)c1cccnc1)N1CCN=C21` [Example 74, N-[7-methoxy-8-(3-piperidin-1-ylpropoxy)-2,3-dihydroimidazo[1,2-c]quinazolin-5-yl]nicotinamide] yielded an IC50 of under 100 nM. `COc1c(OCCN2CCCCC2)ccc2c1N=C(NC(=O)c1cccnc1)N1CCN=C21` [Example 76, N-[7-methoxy-8-(2-piperidin-1-ylethoxy)-2,3-dihydroimidazo[1,2-c]quinazolin-5-yl]nicotinamide] was tested, and the IC50 was under 100 nM.
